According to PubChem BioAssay (NCI):
“And” between values parts separate entries of the source, which are not always exact repeats. Equal values may be shown once.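 The compound was tested at five concentrations on cells cultured in 96-well plates, with a 48-hour exposure period. GI50: concentration for 50% inhibition of growth. Definition used: TGI = concentration required for complete inhibition of growth.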

How the values were obtained:
Experiment in all cases: growth of human tumour cells (NCI), 48 h
[1] = test system: KM12 colon
[2] = test system: DU-145 prostate
[3] = test system: TK-10 renal
[4] = test system: CAKI-1 renal
[5] = test system: NCI-H460 lung
[6] = test system: HL-60(TB) leukemia
[7] = test system: HOP-92 NSCLC
[8] = test system: SF-539 CNS
[9] = test system: LOX IMVI melanoma
[10] = test system: COLO 205 colon

Row | Compound | GI50 [1] | TGI [1] | GI50 [2] | TGI [2] | GI50 [3] [nM] | TGI [3] | GI50 [4] | TGI [4] | GI50 [5] | TGI [5] | GI50 [6] | TGI [6] | GI50 [7] [nM] | TGI [7] | GI50 [8] | TGI [8] | GI50 [9] | TGI [9] | GI50 [10] | TGI [10]
1 | CCCCCCCC(=O)SCC/C=C/[C@@H]1CC(=O)NCc2nc(cs2)C2=N[C@@](C)(CS2)C(=O)N[C@@H](C(C)C)C(=O)N1 | 38.9 nM | > 100 µM | < 10 nM | > 100 µM | 17.5 | 0.316 µM | 2750 nM | 17.6 µM | 33.5 nM | > 100 µM | 13 nM | > 100 µM | < 11.9 | 0.229 µM | 38.1 nM | > 57.8 µM | 19.8 nM | 46.8 nM | 11.4 nM | 0.0302 µM
2 | CC(=O)OC12c3ccccc3-c3ccccc3C1C(C(=O)O)C2C(=O)O (configuration not stated) | – | > 10 µM | – | > 10 µM | – | > 10 µM | – | > 10 µM | – | > 10 µM | – | > 10 µM | – | > 10 µM | – | > 10 µM | – | > 10000 nM | – | > 10 µM
3 | Cn1nc(C(F)(F)F)c(-c2cc(C(F)(F)F)cc(C(F)(F)F)c2)c1-c1ccc(OCc2ccc(Cl)cc2)cc1O | 2640 nM | 10.7 µM | 3900 nM | 14.8 µM | 3110 | 11.1 µM | 2110 nM | 5.9 µM | 2160 nM | 5.5 µM | 2080 nM | 5.57 µM | 1630 | 5.07 µM | 2100 nM | 5.94 µM | 1980 nM | 4310 nM | 1700 nM | 3.36 µM
4 | C[C@H]1CNC(=O)c2cnn3ccc(nc23)N[C@H](C)c2cc(F)ccc2O1 | – | > 100 µM | 2260 nM | 12.8 µM | 749 | 3.12 µM | 343 nM | 1.59 µM | 946 nM | 25.1 µM | 4660 nM | > 62.5 µM | 184 | 0.998 µM | 743 nM | 3.79 µM | 334 nM | 1430 nM | 779 nM | 4.33 µM
5 | NC(N)=NC(N)=NCCCc1ccco1 | 109000 nM | > 500 µM | 140000 nM | > 500 µM | 22700 | 119 µM | 92400 nM | 247 µM | 143000 nM | > 500 µM | 15900 nM | 48.2 µM | 57500 | 158 µM | 108000 nM | 268 µM | 52200 nM | 121000 nM | > 500000 nM | > 500 µM
6 | COC(=O)Nc1nc2ccc(C(=O)c3ccccc3)cc2[nH]1 | 402 nM and 130 nM | – | 1060 nM and 259 nM | 22.6 µM and 3 µM | – | > 100 µM | 469 nM and 347 nM | > 100 µM | 397 nM and 330 nM | – | 255 nM and 233 nM | 0.636 µM | – | > 85.9 µM | 577 nM and 238 nM | – | 625 nM and 870 nM | > 100000 nM | 331 nM and 274 nM | 1.12 µM and 3.74 µM
7 | O=C(c1ccco1)c1c(C(F)(F)F)n([O-])c2cc(C(F)(F)F)ccc2[n+]1=O | 516 nM | 1.19 µM | 549 nM | 1.21 µM | 1570 | 3.1 µM | 1510 nM | 2.97 µM | 537 nM | 1.8 µM | 185 nM | 0.484 µM | 252 | 1.51 µM | 1270 nM | 2.61 µM | 299 nM | 730 nM | 475 nM | 2 µM
8 | CC(C)=CC(=O)N[C@H]1CC[C@]2(C)C3CC[C@]4(C)C(C(C)N(C)C)=CCC4C3CCC2[C@H]1O (some centres not stated) | 3480 nM | 14.2 µM | 8680 nM | 21.4 µM | 11000 | 26.3 µM | 5630 nM | 14.7 µM | 1870 nM | 3.75 µM | 3340 nM | 9.11 µM | 7720 | 22 µM | 1590 nM | 3.38 µM | 1620 nM | 3490 nM | 1690 nM | 3.3 µM
9 | CO[C@H]1C[C@](C)(O)Cc2cc3c(c(O)c21)C(=O)c1c(O)cc2c(c1C3=O)O[C@@H]1O[C@@]2(C)[C@H](O)[C@@H](N(C)C)[C@@H]1O | 1390 nM | 3.18 µM and 11.4 µM | – | 7.14 µM | 3890 | 6.49 µM and 21.5 µM | 114 nM | 2.1 µM and 1.59 µM | 35 nM | 1.47 µM and 2.1 µM | 159 nM | 0.797 µM and 1.64 µM | 1810 | 7.76 µM and 2.96 µM | – | 2.3 µM and 2.89 µM | 509 nM and 1060 nM | 2150 nM and 2710 nM | 1460 nM | 2.97 µM and 8.57 µM
10 | C[C@]12CC[C@H]3[C@@H](CC4SC(N)=NC45C/C(=N/NC(N)=O)CC[C@]35C)[C@@H]1CCC2=O (some centres not stated) | 2010 nM | 4.02 µM | 1750 nM | 3.41 µM | 2290 | 5.45 µM | 1770 nM | 3.64 µM | 1920 nM | 3.61 µM | 2730 nM | 7.95 µM | 1510 | 3.16 µM | 2050 nM | 5.23 µM | 1710 nM | 3120 nM | 2060 nM | 4.37 µM
